{
  "source": "paper PMC7801264",
  "about": "“Farnesyl Transferase Inhibitor Lonafarnib Enhances α7nAChR Expression Through Inhibiting DNA Methylation of CHRNA7 and Increases α7nAChR Membrane Trafficking” (Frontiers in Pharmacology, 2020)",
  "target": "T1, α7 nicotinic acetylcholine receptor (α7nAChR) (Mus musculus, UniProt P49582)",
  "T1 construct": "gene Chrna7; native receptor in hippocampal CA1 pyramidal cells (brain slices)",
  "T1 sequence (P49582 23-502)": "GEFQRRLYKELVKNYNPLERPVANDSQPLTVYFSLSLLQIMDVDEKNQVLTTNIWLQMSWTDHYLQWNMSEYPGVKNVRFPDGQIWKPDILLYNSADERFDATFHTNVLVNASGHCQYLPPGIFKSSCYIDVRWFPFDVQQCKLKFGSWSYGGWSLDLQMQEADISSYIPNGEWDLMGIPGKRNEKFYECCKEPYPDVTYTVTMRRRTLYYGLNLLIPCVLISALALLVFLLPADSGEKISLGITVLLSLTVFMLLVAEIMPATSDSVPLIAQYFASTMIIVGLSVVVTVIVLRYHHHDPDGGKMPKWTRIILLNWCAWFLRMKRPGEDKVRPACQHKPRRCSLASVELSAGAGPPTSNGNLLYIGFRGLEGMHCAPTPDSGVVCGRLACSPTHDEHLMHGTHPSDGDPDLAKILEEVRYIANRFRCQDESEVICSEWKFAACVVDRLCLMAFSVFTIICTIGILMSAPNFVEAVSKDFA",
  "assay": "whole cell patch-clamp of ACh-evoked inward current in mouse hippocampal slices, dose-response",
  "data": [
    {"compound": "CC(=O)OCC[N+](C)(C)C", "note": "[acetylcholine]", "values": [
      {"measurement": "EC50", "value": 431, "unit": "µM"}
    ]}
  ]
}
